Measured values taken from patent US20190225650A1, “PEPTIDOMIMETIC MACROCYCLES AND USE THEREOF IN REGULATING HIF1ALPHA” (AILERON THERAPEUTICS, INC., priority 2013, published 2019).
Bridge positions count the residues as written; N and C are the ends. Square brackets hold non-standard residues; d marks the D form. Peptide text beside a SMILES is read from it. R8 = C=CCCCCCC[C@@](C)(N)C(=O)O; S5 = C=CCCC[C@](C)(N)C(=O)O; Nle = CCCC[C@H](N)C(=O)O

Experiments:
HRE-bla ME-180 cells [1] = experiment: Cell proliferation assay (viability, MTT, 1% FBS); type: cell-based, human
Outline: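 ME-180 cells (2×10^4/well) in Opti-MEM with 1% FBS were pretreated 16 h under normoxia (21% O2), vehicle 0.5% DMSO final. Incubation then continued under normoxia or hypoxia (1% O2); viable cells quantified by MTT-type CellTiter 96 assay.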

HRE-bla ME-180 cells [2] = experiment: Reporter gene assay (HRE-bla ME-180 HIF reporter, GeneBLAzer); type: cell-based, human; details: for EC50: 24 hour normoxia
Outline: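 A FRET β-lactamase readout of HIF transcription was used. After compound treatment in 0.3% DMSO/media under normoxic conditions, 20 μl of 6× LiveBLAzer-FRET B/G (CCF4-AM) substrate was added. Plates sat 3 hr at room temperature in the dark and were read at 409 Ex/460Em and 409Ex/530Em on a Synergy 2. Inhibition was compared against DMSO vehicle controls, with chetomin as positive control.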

[3] = molecular target: T1, flag-tagged HIF1α (AA 786-826) / His6-tagged p300 (AA 323-423) complex (Homo sapiens, UniProt Q09472); experiment: HIF1α p300 displacement assay (TR FRET, +CHAPS); type: binding; details: read-out: IC50 (nM) (HIF1α_p300 Displacement + CHAPS)
T1 construct: His6-tagged p300 (AA 323-423); made in house; host or cells: E. coli (pETDuet vector)
Outline: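 The co-expressed flag-HIF1α (786-826)/His6-p300 (323-423) complex, purified from E. coli with 0.1 mM ZnSO4, was used at 300 nM final with competitor peptides for 1 h at room temperature. Buffer was 150 mM NaCl, 20 mM HEPES pH 7.4, 7.5 mM CHAPS and 1 mM DTT. Anti-Flag-K (0.5 μM) and anti-His-D2 (4 nM) were then added for 2 h, and IC50s were fitted from the TR-FRET ratio.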

EC50 (HRE-bla ME-180 cells [2])	IC50 [3]	SMILES	Viability 1% FBS AVG (MTT V3-24 hr Normoxia) (μM) (HRE-bla ME-180 cells [1])	18 h Avg % max inhibition at top conc (HIF Rptr-24 hrs normoxia) (μM) (HRE-bla ME-180 cells [2])
5 to 15 µM	400 to 700 nM	CCCC[C@H](NC(=O)[C@H](CCC(=O)O)NC(=O)[C@@H](NC(=O)[C@@H](NC(=O)[C@H](CC(C)C)NC(=O)[C@]1(C)CCCC=CCCC[C@](C)(NC(=O)[C@H](C)NC(=O)[C@H](CC(=O)O)NC(=O)[C@@H](NC(=O)[C@H](Cc2ccccc2)NC(C)=O)[C@@H](C)CC)C(=O)N[C@@H]([C@@H](C)O)C(=O)N[C@@H](CC(C)C)C(=O)N[C@@H](CCCC)C(=O)N1)C(C)C)[C@@H](C)CC)C(=O)N[C@@H](C)C(=O)N[C@@H](CC(C)C)C(N)=O [SP-149] (Ac-FIDA[S5]TL[Nle][S5]LVIE[Nle]AL-NH2; staple 5-9)	+ (<5: +)	++++ (≥50: ++++)
> 30 µM	400 to 700 nM	CCCC[C@H](NC(=O)[C@H](CCC(=O)O)NC(=O)[C@@H](NC(=O)[C@@H](NC(=O)[C@H](CC(C)C)NC(=O)[C@]1(C)CCCC=CCCC[C@](C)(NC(=O)[C@H](CCC(=O)O)NC(=O)[C@H](CC(=O)O)NC(=O)[C@@H](NC(=O)[C@H](Cc2ccccc2)NC(C)=O)[C@@H](C)CC)C(=O)N[C@@H](C(C)C)C(=O)N[C@@H](CC(C)C)C(=O)N[C@@H](C)C(=O)N1)C(C)C)[C@@H](C)CC)C(=O)N[C@@H](C)C(=O)N[C@@H](CC(C)C)C(N)=O [SP-152] (Ac-FIDE[S5]VLA[S5]LVIE[Nle]AL-NH2; staple 5-9)	++++ (≥30: ++++)	+++ (≤25 but <50: +++)
> 30 µM	400 to 700 nM	CCCC[C@H](NC(=O)[C@H](CCC(=O)O)NC(=O)[C@@H](NC(=O)[C@@H](NC(=O)[C@H](CC(C)C)NC(=O)[C@]1(C)CCCC=CCCC[C@](C)(NC(=O)[C@H](CCC(=O)O)NC(=O)[C@H](CC(=O)O)NC(=O)[C@@H](NC(=O)[C@H](Cc2ccccc2)NC(C)=O)[C@@H](C)O)C(=O)N[C@@H](C(C)C)C(=O)N[C@@H](CC(C)C)C(=O)N[C@@H](CCCC)C(=O)N1)C(C)C)[C@@H](C)CC)C(=O)N[C@@H](C)C(=O)N[C@@H](CC(C)C)C(N)=O [SP-153] (Ac-FTDE[S5]VL[Nle][S5]LVIE[Nle]AL-NH2; staple 5-9)	++++ (≥30: ++++)	+ (<10: +)
> 30 µM	200 to 400 nM	CCCC[C@H](NC(=O)[C@H](CCC(=O)O)NC(=O)[C@@H](NC(=O)[C@@H](NC(=O)[C@H](CC(C)C)NC(=O)[C@]1(C)CCCC=CCCC[C@](C)(NC(=O)[C@H](CCC(=O)O)NC(=O)[C@H](CC(=O)O)NC(=O)[C@H](CO)NC(=O)[C@H](Cc2ccccc2)NC(C)=O)C(=O)N[C@@H](C(C)C)C(=O)N[C@@H](CC(C)C)C(=O)N[C@@H](CCCC)C(=O)N1)C(C)C)[C@@H](C)CC)C(=O)N[C@@H](C)C(=O)N[C@@H](CC(C)C)C(N)=O [SP-154] (Ac-FSDE[S5]VL[Nle][S5]LVIE[Nle]AL-NH2; staple 5-9)	++++ (≥30: ++++)	+ (<10: +)
> 30 µM	> 700 nM	CCCC[C@H](NC(=O)[C@H](CCC(=O)O)NC(=O)[C@@H](NC(=O)[C@@H](NC(=O)[C@H](CC(C)C)NC(=O)[C@]1(C)CCCC=CCCC[C@](C)(NC(=O)[C@H](CCC(=O)O)NC(=O)[C@H](CCCNC(=N)N)NC(=O)[C@@H](NC(=O)[C@H](Cc2ccccc2)NC(C)=O)[C@@H](C)CC)C(=O)N[C@@H](C(C)C)C(=O)N[C@@H](CC(C)C)C(=O)N[C@@H](CCCC)C(=O)N1)C(C)C)[C@@H](C)CC)C(=O)N[C@@H](C)C(=O)N[C@@H](CC(C)C)C(N)=O [SP-155] (Ac-FIRE[S5]VL[Nle][S5]LVIE[Nle]AL-NH2; staple 5-9)	++++ (≥30: ++++)	++ (≤10 but <25: ++)
> 30 µM	200 to 400 nM	CCCC[C@H](NC(=O)[C@H](CCC(=O)O)NC(=O)[C@@H](NC(=O)[C@@H](NC(=O)[C@H](CC(C)C)NC(=O)[C@]1(C)CCCC=CCCC[C@](C)(NC(=O)[C@H](CCCNC(=N)N)NC(=O)[C@H](CC(=O)O)NC(=O)[C@@H](NC(=O)[C@H](Cc2ccccc2)NC(C)=O)[C@@H](C)CC)C(=O)N[C@@H](C(C)C)C(=O)N[C@@H](CC(C)C)C(=O)N[C@@H](CCCC)C(=O)N1)C(C)C)[C@@H](C)CC)C(=O)N[C@@H](C)C(=O)N[C@@H](CC(C)C)C(N)=O [SP-156] (Ac-FIDR[S5]VL[Nle][S5]LVIE[Nle]AL-NH2; staple 5-9)	++++ (≥30: ++++)	++ (≤10 but <25: ++)
> 30 µM	> 700 nM	CC[C@H](C)[C@H](NC(=O)[C@H](Cc1ccccc1)NC(C)=O)C(=O)N[C@@H](CC(=O)O)C(=O)N[C@@H](CCC(=O)O)C(=O)N[C@]1(C)CCCCCCC=CCCC[C@@](C)(C(=O)N[C@@H](CCC(=O)O)C(=O)N[C@@H](CCSC)C(=O)N[C@@H](C)C(=O)N[C@@H](CC(C)C)C(=O)N[C@@H](CC(=O)O)C(N)=O)NC(=O)[C@H](C(C)C)NC(=O)[C@H](CC(C)C)NC(=O)[C@H](CO)NC(=O)[C@H](CCSC)NC(=O)[C@H](CC(C)C)NC(=O)[C@H](C(C)C)NC1=O [SP-176] (Ac-FIDE[R8]VLMSLV[S5]EMALD-NH2; staple 5-12)	++++ (≥30: ++++)	++++ (≥50: ++++)
5 to 15 µM	400 to 700 nM	CC[C@H](C)[C@H](NC(=O)[C@H](Cc1ccccc1)NC(C)=O)C(=O)N[C@@H](CC(=O)O)C(=O)N[C@@H](CCC(=O)O)C(=O)N[C@]1(C)CCCCCCC=CCCC[C@@](C)(C(=O)N[C@@H](CCC(=O)O)C(=O)N[C@@H](CCSC)C(=O)N[C@@H](C)C(=O)N[C@@H](CC(C)C)C(N)=O)NC(=O)[C@H](C(C)C)NC(=O)[C@H](CC(C)C)NC(=O)[C@H](CO)NC(=O)[C@H](CCSC)NC(=O)[C@H](CC(C)C)NC(=O)[C@H](C(C)C)NC1=O [SP-177] (Ac-FIDE[R8]VLMSLV[S5]EMAL-NH2; staple 5-12)	+++ (≤15 but <30: +++)	++++ (≥50: ++++)
> 30 µM	200 to 400 nM	CCCC[C@H](NC(=O)[C@H](C)NC(=O)[C@]1(C)CCCC=CCCCCCC[C@@](C)(NC(=O)[C@H](CCC(=O)O)NC(=O)[C@H](CC(=O)O)NC(=O)[C@@H](NC(=O)[C@H](Cc2ccccc2)NC(C)=O)[C@@H](C)CC)C(=O)N[C@@H](C(C)C)C(=O)N[C@@H](CC(C)C)C(=O)N[C@@H](CCCC)C(=O)N[C@@H](CO)C(=O)N[C@@H](CC(C)C)C(=O)N[C@@H](C(C)C)C(=O)N1)C(=O)N[C@@H](C)C(=O)N[C@@H](CC(C)C)C(=O)N[C@@H](CC(=O)O)C(=O)N[C@@H](C)C(=O)N[C@H](C(N)=O)[C@@H](C)CC [SP-191] (Ac-FIDE[R8]VL[Nle]SLV[S5]A[Nle]ALDAI-NH2; staple 5-12)	++++ (≥30: ++++)	++ (≤10 but <25: ++)
> 30 µM	200 to 400 nM	CCCC[C@H](NC(=O)[C@H](CCC(=O)O)NC(=O)[C@]1(C)CCCC=CCCCCCC[C@@](C)(NC(=O)[C@H](CCC(=O)O)NC(=O)[C@H](C)NC(=O)[C@@H](NC(=O)[C@H](Cc2ccccc2)NC(C)=O)[C@@H](C)CC)C(=O)N[C@@H](C(C)C)C(=O)N[C@@H](CC(C)C)C(=O)N[C@@H](CCCC)C(=O)N[C@@H](CO)C(=O)N[C@@H](CC(C)C)C(=O)N[C@@H](C(C)C)C(=O)N1)C(=O)N[C@@H](C)C(=O)N[C@@H](CC(C)C)C(=O)N[C@@H](CC(=O)O)C(=O)N[C@@H](C)C(=O)N[C@H](C(N)=O)[C@@H](C)CC [SP-192] (Ac-FIAE[R8]VL[Nle]SLV[S5]E[Nle]ALDAI-NH2; staple 5-12)	++++ (≥30: ++++)	++ (≤10 but <25: ++)
≤ 5 µM	400 to 700 nM	CCCC[C@H](NC(=O)[C@H](CCC(=O)O)NC(=O)[C@]1(C)CCCC=CCCCCCC[C@@](C)(NC(=O)[C@H](CCC(=O)O)NC(=O)[C@H](CC(=O)O)NC(=O)[C@@H](NC(=O)[C@H](Cc2ccccc2)NC(C)=O)[C@@H](C)CC)C(=O)N[C@@H](C(C)C)C(=O)N[C@@H](CC(C)C)C(=O)N[C@@H](CCCC)C(=O)N[C@@H](CO)C(=O)N[C@@H](CC(C)C)C(=O)N[C@@H](C(C)C)C(=O)N1)C(=O)N[C@@H](C)C(=O)N[C@@H](CC(C)C)C(N)=O [SP-195] (Ac-FIDE[R8]VL[Nle]SLV[S5]E[Nle]AL-NH2; staple 5-12)	++ (≤5 but <15: ++)	++++ (≥50: ++++)
